# Experiments:
# [1] = target: T1, hPLCγ1 (Homo sapiens, UniProt P19174, I813T); experiment: Hydrogen deuterium exchange mass spectrometry (HDX-MS), apo vs 10 µM ADP; assay type: binding
# T1 construct: specific activities of PLCγ1^wt and PLCγ2^wt full-length proteins; made in house; host or cells: Escherichia coli T7 Express lysY/Iq
# T1 sequence (P19174 1-1291 isoform P19174-2 I813T): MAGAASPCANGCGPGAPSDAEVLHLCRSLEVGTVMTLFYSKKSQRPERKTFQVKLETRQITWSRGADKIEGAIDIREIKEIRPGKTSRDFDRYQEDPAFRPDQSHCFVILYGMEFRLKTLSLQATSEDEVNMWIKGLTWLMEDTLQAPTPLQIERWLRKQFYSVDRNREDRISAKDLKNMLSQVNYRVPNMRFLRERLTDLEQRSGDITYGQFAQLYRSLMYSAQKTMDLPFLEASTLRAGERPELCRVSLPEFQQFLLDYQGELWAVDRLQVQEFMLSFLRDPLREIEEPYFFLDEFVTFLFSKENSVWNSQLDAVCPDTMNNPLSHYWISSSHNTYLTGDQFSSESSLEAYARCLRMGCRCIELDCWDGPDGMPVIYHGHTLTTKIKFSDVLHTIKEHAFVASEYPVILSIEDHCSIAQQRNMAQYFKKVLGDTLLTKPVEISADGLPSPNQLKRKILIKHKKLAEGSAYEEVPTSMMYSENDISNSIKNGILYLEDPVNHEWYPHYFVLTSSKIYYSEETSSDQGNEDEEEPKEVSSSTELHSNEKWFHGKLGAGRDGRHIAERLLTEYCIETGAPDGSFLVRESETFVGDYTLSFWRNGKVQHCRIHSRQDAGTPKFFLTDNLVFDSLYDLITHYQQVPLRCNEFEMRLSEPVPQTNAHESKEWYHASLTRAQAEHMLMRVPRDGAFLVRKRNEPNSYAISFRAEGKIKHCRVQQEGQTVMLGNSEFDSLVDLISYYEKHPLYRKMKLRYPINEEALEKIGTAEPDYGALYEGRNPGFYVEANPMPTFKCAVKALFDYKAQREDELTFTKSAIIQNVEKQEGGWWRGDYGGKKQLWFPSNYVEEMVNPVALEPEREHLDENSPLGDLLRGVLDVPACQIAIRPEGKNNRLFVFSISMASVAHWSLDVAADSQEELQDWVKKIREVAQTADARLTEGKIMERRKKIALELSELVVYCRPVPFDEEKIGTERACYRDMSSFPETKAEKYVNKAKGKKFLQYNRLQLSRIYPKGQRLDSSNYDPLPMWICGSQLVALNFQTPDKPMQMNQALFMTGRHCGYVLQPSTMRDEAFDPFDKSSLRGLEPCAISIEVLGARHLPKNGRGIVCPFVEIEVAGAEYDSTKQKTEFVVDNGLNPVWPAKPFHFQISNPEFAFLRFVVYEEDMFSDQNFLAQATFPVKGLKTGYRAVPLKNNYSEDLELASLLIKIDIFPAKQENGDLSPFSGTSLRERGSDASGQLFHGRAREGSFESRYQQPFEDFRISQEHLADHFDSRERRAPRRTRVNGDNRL
# Method: HDX reactions comparing apo hPLCγ1 to hPLCγ1 incubated with ADP were carried out in a 15 µl reaction volume containing 10 pmol of hPLCγ1 (0.67 µM) and 10 µM of ADP and 1.67% DMSO. The exchange reactions were initiated by the addition of 10.0 µl of D2O buffer (25 mM HEPES pH 7.5, 150 mM NaCl, 2 mM TCEP 92.25% D2O (V/V)) to 5.0 µl of protein (final D2O concentration of 61.5%). Reactions proceeded for 3 s at 0°C, 30 s, 300 s and 3000 s at 20°C before being quenched with ice cold acidic quench buffer, resulting in a final concentration of 0.6M guanidine HCl and 0.9% formic acid post quench. All conditions and time points were created and run in independent triplicate. Samples were flash frozen immediately after quenching and stored at -80°C until injected onto the ultra-performance liquid chromatography (UPLC) system for proteolytic cleavage, peptide separation and injection onto a QTOF for mass analysis, described below.
# Protein samples were rapidly thawed and injected onto an integrated fluidics system containing a HDx-3 PAL liquid handling robot and climate-controlled (2°C) chromatography system (Trajan), a Waters Acquity UPLC I-Class Series System, as well as an Impact HD QTOF Mass spectrometer (Bruker). The full details of the automated LC system were previously described. The samples were run over an immobilised pepsin column (Affipro; Enzymate Protein Pepsin Column, 2.1 mm X 20 mm) at 200 µl/min for 3 minutes at 2°C. […]
# Peptides were identified from the non-deuterated samples of p110α using data-dependent acquisition following tandem MS/MS experiments (0.5 s precursor scan from 150 to 2000 m/z; twelve 0.25 s fragment scans from 150 to 2000 m/z). MS/MS datasets were analysed using FragPipe v18.0 and peptide identification was carried out by using a false discovery-based approach using a database of purified proteins and known contaminants [[35–37]]. […]
# HD-Examiner Software (Trajan) was used to automatically calculate the level of deuterium incorporation into each peptide. […] Deuteration levels were calculated using the centroid of the experimental isotope clusters. […]
# [2] = test system: PLCγ2^wt; experiment: PLC activity assay 1 (A1), PLCγ2; assay type: biochemical, human; settings: assay using liposomes (A1)
# Method: The effect of nucleotide inhibition on PLC activity was measured using either a membrane-based assay with the fluorescent substrate (XY-69) incorporated into liposomes or using a small soluble substrate, Aldol 518 myo-inositol-1-phosphate (Aldol). Both methods utilised the same PLC assay buffer [20 mM Hepes-KOH, 70 mM KCl, 3 mM EGTA, 2.97 mM CaCl2, 2 mM TCEP and fatty acid-free bovine serum albumin (FAF-BSA; 50 μg/ml) (pH 7.5)]. Both assays were performed in low volume black 384-well plates (Greiner Bio-One), were composed of a final assay volume of 20 μl and were monitored in a Clariostar plate reader (BMG Labtech). The Aldol assay consisted of 4 μl of a serial dilution of ATP/ADP in assay buffer, 8 μl of PLC protein (concentration varied between PLC variants), and 8 μl of Aldol 518 myo-inositol-1-phosphate (final concentration in assay, 50 μM). […]
# The XY-69 assay contained 4 μl of a serial dilution of ATP/ADP in assay buffer, 4 μl of PLC protein (concentration varied between PLC variants), and 12 μl of XY69 liposomes (final concentration in assay 1.2 mg/ml). A CLARIOstar plate reader (BMG Labtech) was used to measure the production of the fluorescent product. […] The initial linear rate of product generation was calculated and converted to a % inhibition when compared with the rate of PLC activity in the absence of nucleotide. […]
structure (smiles),measurement,setting,value
Nc1ncnc2c1ncn2[C@@H]1O[C@H](COP(=O)(O)OP(=O)(O)O)[C@@H](O)[C@H]1O [ADP],difference in deuterium exchange (increase in exchange),[1]; amino acids 24–35 in the nPH domain,4.5–10%
same,difference in deuterium exchange (protection),"[1]; amino acids 330–347, 367–386, 863–882 and 957–973",4.5–10%
same,difference in deuterium exchange (protection),[1]; amino acids 481–495,> 10%
same,IC50 of PLCγ2^wt relative to PLCγ1^wt (fold higher),[2],1.5- to 40 fold

# Reference: article PMC12687421, “Characterisation of an allosteric site in PLCγ enzymes and implications for development of their specific inhibitors” (Biochemical Journal, 2025)
